Laboratory results reported in ChEMBL document CHEMBL3861945 (Medchemcomm, 2016).

How the values were obtained:
[1] = test system: Trypanosoma cruzi; assay: Trypanocidal activity against bloodstream trypomastigote stage of Trypanosoma cruzi Y after 24 hrs by Neubauer chamber method; format: functional
[2] = Cytotoxicity against human MDA-MB-435 cells assessed as decrease in cell viability after 72 hrs by MTT assay; format: functional, cell-based; details: MDA-MB-435, 72 h
[3] = Cytotoxicity against human SF295 cells assessed as decrease in cell viability after 72 hrs by MTT assay; format: functional, cell-based; details: SF-295, 72 h
[4] = Cytotoxicity against human PC3 cells assessed as decrease in cell viability after 72 hrs by MTT assay; format: functional, cell-based; details: PC-3, 72 h
[5] = Cytotoxicity against human PBMC assessed as decrease in cell viability after 72 hrs by MTT assay; format: toxicity, cell-based; details: PBMC (peripheral blood mononuclear cells)
[6] = Cytotoxicity against human HCT116 cells assessed as decrease in cell viability after 72 hrs by MTT assay; format: functional, cell-based; details: HCT-116, 72 h
[7] = Cytotoxicity against human HL60 cells assessed as decrease in cell viability after 72 hrs by MTT assay; format: functional, cell-based; details: HL-60, 72 h
[8] = test system: Trypanosoma cruzi; assay: Trypanocidal activity against bloodstream form of Trypanosoma cruzi after 24 hrs; format: functional
[9] = test system: PC-3; assay: Selectivity index, ratio of IC50 for human PBMC to IC50 for human PC3 cells
[10] = test system: HL-60; assay: Selectivity index, ratio of IC50 for human PBMC to IC50 for human HL60 cells
[11] = test system: SF-295; assay: Selectivity index, ratio of IC50 for human PBMC to IC50 for human SF295 cells
[12] = Selectivity index, ratio of IC50 for human PBMC to IC50 for human MDA-MB-435 cells
[13] = test system: HCT-116; assay: Selectivity index, ratio of IC50 for human PBMC to IC50 for human HCT116 cells

Row | Compound | IC50 [1] | IC50 [2] | IC50 [3] | IC50 [4] | IC50 at 72 h [5] | IC50 [6] | IC50 [7] | IC50 [8] | Ratio IC50 [9] | Ratio IC50 [10] | Ratio IC50 [11] | Ratio IC50 [12] | Ratio IC50 [13]
1 | CC1(C)CCC2=C(O1)c1ccccc1C(=O)C2=O [LAPACHONE] | 392 µM |  |  |  |  |  |  |  |  |  |  |  | 
2 | O=C1C2=C(OC(Cn3nnc(-c4ccccc4)c3I)C2)C(=O)c2ccccc21 (configuration not stated) | > 1000 µM | > 10.3 µM | > 10.3 µM | > 10.3 µM | > 10.3 µM | 6.04 µM | 5.4 µM |  |  |  |  |  | 
3 | CC1(C)CC(n2nnc(-c3ccccc3)c2I)C2=C(O1)C(=O)c1ccccc1C2=O (configuration not stated) | > 1000 µM | > 9.78 µM | > 9.78 µM | > 9.78 µM | > 9.78 µM | > 9.78 µM | > 9.78 µM |  |  |  |  |  | 
4 | O=C1C(=O)c2ccccc2C2=C1CC(Cn1cc(C3=CCCCC3)nn1)O2 (configuration not stated) |  | 2.68 µM | 2.32 µM | 4.37 µM | 5.31 µM | 3.98 µM | 3.29 µM | 55.3 µM |  |  |  |  | 
5 | O=C1C(=O)c2ccccc2C2=C1CC(Cn1nncc1-c1ccccc1)O2 (configuration not stated) | > 1000 µM | 6.13 µM | 7.78 µM | 6.91 µM | 5.71 µM | 4.84 µM | 4.11 µM |  |  |  |  |  | 
6 | O=C1C2=C(OC(Cn3cc(-c4ccccc4)nn3)C2)C(=O)c2ccccc21 (configuration not stated) | > 1000 µM | > 14 µM | > 14 µM | > 14 µM | > 14 µM | 8.7 µM | 7.95 µM |  |  |  |  |  | 
7 | CC1(C)CC(n2cc(-c3ccccc3)nn2)C2=C(O1)C(=O)c1ccccc1C2=O (configuration not stated) | > 1000 µM | > 13 µM | > 13 µM | > 13 µM | > 13 µM | 9.63 µM | 7.94 µM |  |  |  |  |  | 
8 | CC1(C)CC(n2nncc2-c2ccccc2)C2=C(O1)C(=O)c1ccccc1C2=O (configuration not stated) | > 1000 µM | > 13 µM | > 13 µM | > 13 µM | > 13 µM | > 13 µM | > 13 µM |  |  |  |  |  | 
9 | O=C1C(=O)c2ccccc2C2=C1CC(Cn1cc(C3CCCCC3)nn1)O2 (configuration not stated) |  | 1.21 µM | 1.89 µM | 2.55 µM | 5.17 µM | 2.17 µM | 2.25 µM | 214 µM |  |  |  |  | 
10 | O=C1C(=O)c2ccccc2C2=C1CC(Cn1nnc(-c3ccccc3)c1-c1ccccc1)O2 (configuration not stated) | > 1000 µM | 1.17 µM | 1.43 µM | 1.29 µM | 2.16 µM | 1.68 µM | 1.15 µM |  |  |  |  |  | 
11 | O=C1C(=O)c2ccccc2C2=C1CC(Cn1cc(C3(O)CCCCC3)nn1)O2 (configuration not stated) |  | 10.2 µM | 11.1 µM | 12.4 µM | > 13.2 µM | 12.7 µM | 11 µM | 89.5 µM |  |  |  |  | 
12 | O=C1C2=C(OC(Cn3nncc3-c3ccccc3)C2)C(=O)c2ccccc21 (configuration not stated) | > 1000 µM | > 14 µM | > 14 µM | > 14 µM | > 14 µM | 3.36 µM | 3.02 µM |  |  |  |  |  | 
13 | CC1(C)OC2=C(C(=O)C(=O)c3ccccc32)C1n1nnc(-c2ccccc2)c1I (configuration not stated) | > 1000 µM | 3.05 µM | 2.83 µM | 2.77 µM | 4.08 µM | 3.35 µM | 2.59 µM |  |  |  |  |  | 
14 | O=C1C(=O)c2ccccc2C2=C1CC(Cn1nnc(-c3ccccc3)c1I)O2 (configuration not stated) | > 1000 µM | 5.65 µM | 3.68 µM | 2.17 µM | 3.68 µM | 4.16 µM | 2.38 µM |  |  |  |  |  | 
15 | CC1(C)OC2=C(C(=O)C(=O)c3ccccc32)C1n1nncc1-c1ccccc1 (configuration not stated) | 113 µM | 1.75 µM | 2.37 µM | 1.34 µM | 2.02 µM | 1.37 µM | 1.48 µM |  | 1.5 |  |  |  | 
16 | O=C1C(=O)c2ccccc2C2=C1CC(Cn1cc(-c3ccccc3)nn1)O2 (configuration not stated) | > 1000 µM | 3.08 µM | 3.24 µM | 2.07 µM | 3.24 µM | 2.4 µM | 3.55 µM |  |  |  |  |  | 
17 | CC1(C)OC2=C(C(=O)C(=O)c3ccccc32)[C@H](n2nnc(-c3ccccc3)c2I)[C@H]1Br | > 1000 µM | > 8.48 µM | > 8.48 µM | > 8.48 µM | > 8.48 µM | > 8.48 µM | > 8.48 µM |  |  |  |  |  | 
18 | CC1(C)OC2=C(C(=O)c3ccccc3C2=O)C1n1nnc(-c2ccccc2)c1I (configuration not stated) | > 1000 µM | 5.69 µM | 4.58 µM | 5.73 µM | 7.86 µM | 5.17 µM | 4.22 µM |  |  |  |  |  | 
19 | CCCCCCc1cn(CC2CC3=C(O2)c2ccccc2C(=O)C3=O)nn1 (configuration not stated) |  | 1.91 µM | 2.7 µM | 3.42 µM | 5.99 µM | 2.13 µM | 2.02 µM | 86.7 µM |  |  |  |  | 
20 | CC1(C)OC2=C(C(=O)c3ccccc3C2=O)C1n1nncc1-c1ccccc1 (configuration not stated) | > 1000 µM | 3.71 µM | 2.8 µM | 3.07 µM | 7.57 µM | 2.5 µM | 2.55 µM |  |  |  |  |  | 
21 | CC1(C)OC2=C(C(=O)C(=O)c3ccccc32)[C@H](n2nncc2-c2ccccc2)[C@H]1Br | 125 µM | 0.77 µM | 1.59 µM | 0.41 µM | 1.23 µM | 0.47 µM | 0.66 µM |  | 0.8 - 3 | 0.8 - 3 | 0.8 - 3 | 0.8 - 3 | 0.8 - 3
